Test results published in ChEMBL document CHEMBL1201862, “PubChem BioAssay data set” (2004).
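Assay format: 96-well plates, 48-hour exposure. Here, GI50 denotes the concentration required for 50% inhibition of growth.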 Calls of active or inactive are those of the source. Cut-off read from the data, not from the text of the source: active = GI50 up to about 1.1 µM and inactive = higher.

Legend:
Experiment in all cases: NCI anticancer screen, dose series, 48 h
KM12 = test system: KM12
RXF 393 = test system: RXF 393
A549 = test system: A549
EKVX = test system: EKVX
NCI-H226 = test system: NCI-H226
OVCAR-8 = test system: OVCAR-8
HT-29 = test system: HT-29
Malme-3M = test system: Malme-3M
786-0 = test system: 786-0
MDA-N = test system: MDA-N
SF-268 = test system: SF-268
NCI-H522 = test system: NCI-H522
UACC-257 = test system: UACC-257
OVCAR-4 = test system: OVCAR-4
HCT-15 = test system: HCT-15
OVCAR-5 = test system: OVCAR-5
HOP-92 = test system: HOP-92
BT-549 = test system: BT-549
MOLT-4 = test system: MOLT-4
SK-MEL-28 = test system: SK-MEL-28

SMILES | GI50 (KM12) | GI50 (RXF 393) | GI50 (A549) | GI50 (EKVX) | GI50 (NCI-H226) | GI50 (OVCAR-8) | GI50 (HT-29) | GI50 (Malme-3M) | GI50 (786-0) | GI50 (MDA-N) | GI50 (SF-268) | GI50 (NCI-H522) | GI50 (UACC-257) | GI50 (OVCAR-4) | GI50 (HCT-15) [µM] | GI50 (OVCAR-5) | GI50 (HOP-92) | GI50 (BT-549) | GI50 (MOLT-4) | GI50 (SK-MEL-28)
NC1c2c(Cl)sc(Cl)c2C(=O)C1O (centres undefined) | > 100 µM (inactive) | 12.8 µM (inactive) | > 100 µM (inactive) | 21.6 µM (inactive) | > 100 µM (inactive) | 25.9 µM (inactive) | 19.7 µM (inactive) | 37.9 µM (inactive) | 94.6 µM (inactive) | 44.4 µM (inactive) | 43.1 µM (inactive) | 18.2 µM (inactive) | 43.4 µM (inactive) | 17.2 µM (inactive) | 16.5 | > 100 µM (inactive) | 13.1 µM (inactive) | 15.6 µM (inactive) | 23 µM (inactive) | –
O=NN1C(c2ccccc2)CC(=NO)CC1c1ccccc1 (centres undefined) | > 100 µM (inactive) | > 100 µM (inactive) | > 100 µM (inactive) | > 100 µM (inactive) | > 100 µM (inactive) | > 100 µM (inactive) | 20.5 µM (inactive) | > 100 µM (inactive) | > 100 µM (inactive) | > 100 µM (inactive) | > 100 µM (inactive) | > 100 µM (inactive) | > 100 µM (inactive) | > 100 µM (inactive) | > 100 | – | > 100 µM (inactive) | > 100 µM (inactive) | 46.3 µM (inactive) | > 100 µM (inactive)
O=C(OCc1ccccc1)N1c2cc([N+](=O)[O-])ccc2C(=O)N2CCC[C@H]2C1O (some centres undefined) | > 100 µM (inactive) | > 100 µM (inactive) | > 100 µM (inactive) | > 100 µM (inactive) | > 100 µM (inactive) | > 100 µM (inactive) | > 100 µM (inactive) | – | > 100 µM (inactive) | > 100 µM (inactive) | > 100 µM (inactive) | > 100 µM (inactive) | > 100 µM (inactive) | > 100 µM (inactive) | > 100 | > 100 µM (inactive) | > 100 µM (inactive) | > 100 µM (inactive) | > 100 µM (inactive) | > 100 µM (inactive)
COC(=O)[C@H](Cc1ccccc1)NC(=O)N(CCC#N)CCN(C(=O)N[C@@H](Cc1ccccc1)C(=O)OC)c1ccccc1 | 37.3 µM (inactive) | 18.2 µM (inactive) | 47.1 µM (inactive) | 29.5 µM (inactive) | 30 µM (inactive) | 37.8 µM (inactive) | – | – | 9.2 µM (inactive) | 17.5 µM (inactive) | 22.8 µM (inactive) | – | 20 µM (inactive) | 23.6 µM (inactive) | 38.5 | > 100 µM (inactive) | 18.7 µM (inactive) | 49.3 µM (inactive) | 16.6 µM (inactive) | 18.2 µM (inactive)
CNC(=O)N(CCC#N)CCCN(C(=O)NC)c1ccccc1 | > 100 µM (inactive) | > 100 µM (inactive) | > 100 µM (inactive) | > 100 µM (inactive) | > 100 µM (inactive) | > 100 µM (inactive) | > 100 µM (inactive) | 51.4 µM (inactive) | > 100 µM (inactive) | > 100 µM (inactive) | – | > 100 µM (inactive) | > 100 µM (inactive) | > 100 µM (inactive) | > 100 | > 100 µM (inactive) | > 100 µM (inactive) | > 100 µM (inactive) | > 100 µM (inactive) | > 100 µM (inactive)
CCOP(=O)(C[S+](C)[O-])O[C@@H]1C[C@H](C)CC[C@H]1C(C)C (some centres undefined) | 3.14 µM (inactive) | 2.59 µM (inactive) | 4.85 µM (inactive) | 3.33 µM (inactive) | 3.92 µM (inactive) | 4.48 µM (inactive) | – | 11 µM (inactive) | 2.73 µM (inactive) | 2.86 µM (inactive) | 6.44 µM (inactive) | 2.26 µM (inactive) | 6.4 µM (inactive) | 15 µM (inactive) | 2.71 | 4.28 µM (inactive) | 3.97 µM (inactive) | 5.25 µM (inactive) | 5.18 µM (inactive) | > 100 µM (inactive)
COC(=O)C1CC(C=O)=C(SC)N1 (centres undefined) | > 50 µM (inactive) | > 50 µM (inactive) | > 50 µM (inactive) | > 50 µM (inactive) | – | > 50 µM (inactive) | > 50 µM (inactive) | > 50 µM (inactive) | > 50 µM (inactive) | > 50 µM (inactive) | > 50 µM (inactive) | > 50 µM (inactive) | > 50 µM (inactive) | > 50 µM (inactive) | > 50 | > 50 µM (inactive) | > 50 µM (inactive) | > 50 µM (inactive) | > 50 µM (inactive) | > 50 µM (inactive)
COc1cc(C2C3=C(COC3=O)Oc3cc4c(cc32)OCO4)cc(OC)c1OC (centres undefined) | 0.0112 µM (active) | 0.0106 µM (active) | 0.0354 µM (active) | 0.015 µM (active) | 0.123 µM (active) | 0.0335 µM (active) | – | 0.0828 µM (active) | 0.0333 µM (active) | 0.0219 µM (active) | 0.0417 µM (active) | 0.001 µM (active) | 0.0673 µM (active) | – | < 0.0158 | 0.274 µM (active) | 0.0161 µM (active) | 0.245 µM (active) | 0.024 µM (active) | 0.00771 µM (active)
